Results on one compound are retold here after article PMC8348983 (International Journal of Molecular Sciences, 2021).

Read-outs that look alike come from different tables or passages of the source.

What all share (format): biochemical
In one test the target is human recombinant AChE (Homo sapiens, UniProt P22303). The test can be described thus: biochemical.
Another test concerns the target T1, human plasma BChE (Homo sapiens, UniProt P06276).
T1 construct: was used as a source of BChE and was prepared from heparinized human blood; from tissue; host or cells: human plasma from heparinized human blood
The test can be described thus: biochemical.

The target in a further test is T2, MAO-A (Homo sapiens, UniProt P21397).
T2 construct: purchased Merck, Germany
T2 sequence (P21397 1-527): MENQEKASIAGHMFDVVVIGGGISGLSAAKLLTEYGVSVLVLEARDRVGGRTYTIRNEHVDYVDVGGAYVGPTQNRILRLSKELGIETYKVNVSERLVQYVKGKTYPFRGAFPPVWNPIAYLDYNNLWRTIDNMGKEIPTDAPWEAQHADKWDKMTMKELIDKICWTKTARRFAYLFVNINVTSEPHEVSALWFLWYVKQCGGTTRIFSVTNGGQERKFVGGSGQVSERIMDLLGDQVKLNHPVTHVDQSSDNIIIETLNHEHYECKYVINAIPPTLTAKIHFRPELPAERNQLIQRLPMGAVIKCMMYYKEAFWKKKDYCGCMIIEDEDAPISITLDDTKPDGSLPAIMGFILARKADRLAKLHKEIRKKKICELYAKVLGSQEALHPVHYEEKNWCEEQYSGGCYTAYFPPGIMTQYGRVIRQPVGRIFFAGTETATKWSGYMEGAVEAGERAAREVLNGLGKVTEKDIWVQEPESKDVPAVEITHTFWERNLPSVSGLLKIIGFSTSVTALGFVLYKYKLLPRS
The test can be described thus: MAO-A inhibition assay. Here is the method: (§1) Since monoamine oxidase (MAO; EC 1.4.3.4) inhibitors are considered as neuroprotective agents, compound 6 was screened at two concentrations (1 and 10 µM) for its inhibition potential against both isoforms of human MAOs. […]; MAO inhibition assay was performed as previously described. Supplementary Materials provides details of this assay. […]
(§2) The reaction mixture contains 2.5mg/mL MAO -A or 6.25mg/mLMAO-B enzyme (Merck, Germany) and inhibitor in final concentrations of […] in 50 mM potassiumphosphate buffer with 20% (v/v) glycerol (pH 7.5). […] The sample was then centrifuged (16.500 g) for10 min.The deamination product of kynuramine formed during the enzymatic reaction 4-hydroxyquinoline (4-HQ) was determined by UHPLC-MS on a Zorbax RRHD Eclipse plus C18 column (2.1 mm x 50 mm, […]) (Agilent Technologies, USA), by using a 6470 Series Triple Quadrupole mass spectrometer (Agilent Technologies, USA) as detector with electrospray ionisation – positive ion mode. […]
(§3) 0.1% formic acid in water; (B) 0.1% formic acid in acetonitrile. IC 50of individual compounds were determined by nonlinear regression usingGraphPad Prism 8.0 (GraphPad Software, USA).

Another test deals with T3, MAO-B (Homo sapiens, UniProt P27338).
T3 construct: purchased Merck, Germany
T3 sequence (P27338 1-520): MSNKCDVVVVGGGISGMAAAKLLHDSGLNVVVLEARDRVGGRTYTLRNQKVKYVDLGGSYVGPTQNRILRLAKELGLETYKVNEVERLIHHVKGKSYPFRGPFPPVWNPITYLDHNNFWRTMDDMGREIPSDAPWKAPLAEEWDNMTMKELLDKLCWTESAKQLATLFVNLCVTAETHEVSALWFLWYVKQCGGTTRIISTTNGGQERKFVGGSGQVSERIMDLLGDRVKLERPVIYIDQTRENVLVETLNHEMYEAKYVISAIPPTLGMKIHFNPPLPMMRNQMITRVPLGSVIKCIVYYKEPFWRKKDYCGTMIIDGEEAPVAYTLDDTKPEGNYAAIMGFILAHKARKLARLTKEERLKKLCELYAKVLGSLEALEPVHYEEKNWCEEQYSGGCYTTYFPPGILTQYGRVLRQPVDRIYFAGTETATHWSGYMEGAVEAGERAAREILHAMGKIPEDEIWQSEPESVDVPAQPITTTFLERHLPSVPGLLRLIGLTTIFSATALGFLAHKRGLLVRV
The test can be described thus: MAO-B inhibition assay. Here is the method: as §1, §2, §3

Broadly, the IC50 is the point on the concentration scale where inhibition reaches its midpoint. As usually defined, the inhibition is how much of the control response was suppressed.

T1 sequence (P06276 29-602): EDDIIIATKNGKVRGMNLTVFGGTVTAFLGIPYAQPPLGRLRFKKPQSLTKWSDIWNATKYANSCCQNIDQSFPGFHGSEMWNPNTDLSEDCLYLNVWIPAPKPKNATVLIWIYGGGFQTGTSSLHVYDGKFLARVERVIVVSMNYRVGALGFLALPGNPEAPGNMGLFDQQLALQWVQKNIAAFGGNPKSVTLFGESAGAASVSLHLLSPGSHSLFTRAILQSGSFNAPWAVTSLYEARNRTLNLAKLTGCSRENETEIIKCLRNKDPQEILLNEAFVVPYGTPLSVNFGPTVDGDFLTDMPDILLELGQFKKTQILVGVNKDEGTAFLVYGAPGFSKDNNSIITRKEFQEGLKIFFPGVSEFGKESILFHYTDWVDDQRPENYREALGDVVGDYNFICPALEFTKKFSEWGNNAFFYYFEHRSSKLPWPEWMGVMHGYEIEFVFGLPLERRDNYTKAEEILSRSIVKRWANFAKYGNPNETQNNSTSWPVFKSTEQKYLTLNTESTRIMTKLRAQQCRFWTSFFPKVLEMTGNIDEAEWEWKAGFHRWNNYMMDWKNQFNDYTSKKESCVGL
Sequence of human recombinant AChE (P22303 32-614): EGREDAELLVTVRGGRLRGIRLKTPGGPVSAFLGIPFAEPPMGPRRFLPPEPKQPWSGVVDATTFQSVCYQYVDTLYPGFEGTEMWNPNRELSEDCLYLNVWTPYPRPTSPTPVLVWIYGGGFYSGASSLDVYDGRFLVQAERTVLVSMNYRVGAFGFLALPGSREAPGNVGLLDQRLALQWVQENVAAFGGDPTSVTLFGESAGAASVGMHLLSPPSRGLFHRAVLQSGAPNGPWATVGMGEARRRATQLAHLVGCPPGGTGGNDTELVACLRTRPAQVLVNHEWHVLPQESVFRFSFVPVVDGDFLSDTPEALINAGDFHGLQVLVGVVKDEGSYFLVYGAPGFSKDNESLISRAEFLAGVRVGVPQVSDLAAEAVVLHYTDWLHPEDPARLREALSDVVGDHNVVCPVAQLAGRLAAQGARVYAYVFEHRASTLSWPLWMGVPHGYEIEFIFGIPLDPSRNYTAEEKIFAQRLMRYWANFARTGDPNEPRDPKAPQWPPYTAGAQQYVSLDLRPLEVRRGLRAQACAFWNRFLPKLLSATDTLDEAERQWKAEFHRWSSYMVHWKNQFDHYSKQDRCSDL

Regarding `C=CCOc1ccc(CCN(CC=C)Cc2ccc(OC)c(OCc3ccccc3)c2)cc1` [Compound 6, N-allyl-N-(3-benzyloxy-4-methoxybenzyl)-2-(4-allyloxyphenyl)ethan-1-amine], the IC50 on human recombinant AChE (mean ± SEM of three independent measurements, each in triplicate, read-out: IC50, hAChE ± SEM) was over 100000 nM; on human plasma BChE (mean ± SEM of three independent measurements, each in triplicate, read-out: IC50, hBuChE ± SEM), 70 ± 10 nM; at human plasma BChE (read-out: IC50, hBuChE), 72 nM; against MAO-A it was over 10000 nM; at MAO-B it was over 10000 nM. Also, the inhibition at 100 µM on human recombinant AChE (tested at 100 µM compound concentration, read-out: %Inhibition hAChE ± SEM) worked out at 10.1 ± 0.6%; on human plasma BChE (tested at 100 µM compound concentration, read-out: % Inhibition hBuChE ± SEM), 98.6 ± 0.9%. Besides, the “residual activity of MAO-A” value at MAO-A (1 and 10 µM) was “higher than 68%”. In addition, the “residual activity of MAO-B” value at MAO-B (1 and 10 µM) is on record as “higher than 68%”.
